The values below are quoted from earlier work in US6511676B1 (priority 1999, dated 2003).

The structures appear in SMILES notation.

Series [1] relates to testicular cancers. The note with it: in vivo.
The subject of series [2] is epithelial ovarian carcinoma. As to conditions: oral, 61 patients with cis- or carboplatin resistance.

For the molecule `N.N.[Cl][Pt][Cl]` [cisplatin, Cis-diamminedichloroplatinum(II)], the testicular cancers cured entry in series [1] was “More than 90%”.

Turning to `CN(C)c1nc(N(C)C)nc(N(C)C)n1` [hexamethylmelamine], in series [2], the objective response rate is given as 14%.
